In this experiment the target is SUMOylation activating enzyme subunit 1 (SAE1) (Homo sapiens, UniProt Q9UBE0). Put plainly: MST with RED-NHS-labeled purified SAE1. It counts as binding.

Molecules are shown by their SMILES.

SUMOylation activating enzyme subunit 1 (SAE1), sequence (Q9UBE0 whole entry): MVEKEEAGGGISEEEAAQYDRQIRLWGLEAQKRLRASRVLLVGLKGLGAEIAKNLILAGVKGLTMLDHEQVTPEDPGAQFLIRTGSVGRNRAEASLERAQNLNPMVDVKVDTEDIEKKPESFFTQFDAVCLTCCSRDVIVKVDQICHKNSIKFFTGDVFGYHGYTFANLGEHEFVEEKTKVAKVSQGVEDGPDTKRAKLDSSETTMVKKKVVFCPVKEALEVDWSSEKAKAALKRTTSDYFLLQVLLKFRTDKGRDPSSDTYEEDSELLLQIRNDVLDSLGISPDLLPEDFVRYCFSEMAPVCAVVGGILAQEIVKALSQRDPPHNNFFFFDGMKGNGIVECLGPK

Usually Kd stands for the equilibrium constant for the complex coming apart. A high value points to lower affinity. With `COc1cc2c(c(OC)c1OC)-c1ccc(OC)c(=O)cc1[C@@H](NC(C)=O)CC2` [COL, colchicine], binding was characterised by a dissociation constant (Kd) of 2560 nM.

Values taken from paper PMC12137981 (Acta Pharmaceutica Sinica. B, 2025).
